For this assay, the species on record is Rattus norvegicus. Briefly: Inhibition of rat recombinant geranylgeranyltransferase type I expressed in Escherichia coli assessed as residual enzyme activity for geranylgeranylation of K-Ras4B at 50 uM incubated for 30 mins in presence of [3H]GGPP by scintillation counting assay relative to control.
For `COc1ccc([C@@H]2CC=C(C(C)=O)CN2S(=O)(=O)c2ccc(C)cc2)cc1OC`, the Activity was found to be 83.8%.
Then `Cc1ccc([C@H]2C(C(=O)O)=CC[C@@H](c3cccc(Br)c3)N2S(=O)(=O)c2ccc(C)cc2)cc1`, with 67.4%; and `COc1ccc(S[C@@H]2C[C@@H](c3ccc(Cl)cc3)N(S(=O)(=O)c3ccccc3C)C[C@H]2C(=O)O)cc1`, with 85.6%.
Then `COc1ccc(S[C@@H]2C[C@@H](c3ccc(C)cc3)N(S(=O)(=O)c3ccccc3)C[C@H]2C(=O)O)cc1`, with 100%.
Then `Cc1ccc(S(=O)(=O)N2[C@@H](c3ccc(F)cc3)C(C(=O)O)=CC[C@H]2c2ccc(F)cc2)cc1`, with 66.8%; and `CS(=O)(=O)N1[C@@H](c2ccc(Br)cc2)C(C(=O)O)=CC[C@H]1c1ccc(Cl)cc1`, with 53.6%; and `CCCCCCS[C@@H]1C[C@@H](c2ccc(OC)cc2)N(S(=O)(=O)c2ccccc2)C[C@H]1C(=O)O`, with 96.2%.
On to `COc1cccc([C@@H]2CC=C(C(=O)O)[C@H](c3ccc(F)cc3)N2S(=O)(=O)c2ccc(C)cc2)c1`, for which the Activity came out at 65%.
Then `Cc1ccc(S(=O)(=O)N2C[C@@H](C(=O)O)[C@H](Sc3ccccc3)C[C@H]2c2ccccc2)cc1`, with 49.3%; and `CC(=O)C1=CC[C@@H](c2ccc(C)cc2)N(S(=O)(=O)c2ccc(C)cc2)C1`, with 90.6%.
Then `COc1ccc([C@@H]2C[C@@H](Sc3ccc(C)cc3)[C@H](C(=O)O)CN2S(=O)(=O)c2ccccc2)cc1`, with 84.8%; and `CCc1ccc([C@@H]2C[C@@H](SCC(C)C)[C@H](C(=O)O)CN2S(=O)(=O)c2ccc(C)cc2)cc1`, with 68.5%; and `CCCCCS[C@@H]1C[C@@H](c2ccc(Cl)cc2)N(S(=O)(=O)c2ccc(C)cc2)C[C@H]1C(=O)O`, with 59.8%.
Then `COc1ccc([C@@H]2C[C@@H](SCCC(C)C)[C@H](C(=O)O)CN2S(=O)(=O)c2ccccc2C)cc1`, with 65.9%; and `Cc1ccc(S(=O)(=O)N2C[C@@H](C(=O)O)[C@H](SCc3ccc(C(C)(C)C)cc3)C[C@H]2c2ccccc2)cc1`, with 55.9%; and `Cc1ccc(S(=O)(=O)N2[C@@H](c3cccc(Br)c3)C(C(=O)O)=CC[C@H]2c2ccccc2F)cc1`, with 71.2%.
In the case of `Cc1ccc(S(=O)(=O)N2[C@@H](c3ccc(Cl)cc3)C(C(=O)O)=CC[C@H]2c2ccc(F)cc2)cc1`, the Activity stood at 64.8%.
As to `C=CCS[C@@H]1C[C@@H](c2ccc(OCC)cc2)N(S(=O)(=O)c2ccc(C)cc2)C[C@H]1C(=O)O`, the Activity amounted to 96.7%.
Then `COc1ccc([C@@H]2CC=C(C(=O)O)[C@H](c3ccc(Br)cc3)N2S(=O)(=O)c2ccc(C)cc2)cc1OC`, with 74%; and `CCc1ccc([C@@H]2CC=C(C(=O)O)[C@H](c3ccc(C(C)(C)C)cc3)N2S(=O)(=O)c2ccc(C)cc2)cc1`, with 79.7%; and `Cc1ccc(S(=O)(=O)N2[C@@H](c3ccc(Br)cc3)C(C(=O)O)=CC[C@H]2c2cccc(F)c2)cc1`, with 60.8%.
On to `Cc1ccc(S(=O)(=O)N2[C@@H](c3cccc(Br)c3)C(C(=O)O)=CC[C@H]2c2cccc(C)c2)cc1`, for which the Activity stood at 39.1%.
As for `Cc1ccc(S(=O)(=O)N2C[C@@H](C(=O)O)[C@H](SC3CCCC3)C[C@H]2c2ccc3c(c2)OCO3)cc1`, the Activity stood at 98.1%.
Then `CCCCCS[C@@H]1C[C@@H](c2ccc(C)cc2)N(S(=O)(=O)c2ccc(C)cc2)C[C@H]1C(=O)O`, with 74.3%; and `COc1ccc([C@@H]2CC=C(C(=O)O)[C@H](c3ccc(Cl)cc3)N2S(=O)(=O)c2ccc(C)cc2)cc1OC`, with 83.2%.
Then `CCCCS[C@@H]1C[C@@H](c2ccc3c(c2)OCO3)N(S(=O)(=O)c2ccc(C)cc2)C[C@H]1C(=O)O`, with 80.4%; and `O=C(O)C1=CC[C@@H](c2ccc(Cl)cc2)N(S(=O)(=O)c2ccc(Cl)cc2)[C@H]1c1ccc(Cl)cc1`, with 57.7%; and `COc1ccc([C@@H]2C[C@@H](SCCC(C)C)[C@H](C(=O)O)CN2S(=O)(=O)c2ccc(C)cc2)cc1OC`, with 91.1%.
Consider `Cc1ccc(S(=O)(=O)N2[C@@H](c3ccc(Cl)cc3)C(C(=O)O)=CC[C@H]2c2ccc(C(C)C)cc2)cc1`, for which the Activity was 57.6%.
Then `Cc1ccc(S(=O)(=O)N2[C@@H](c3ccc(Br)cc3)C(C(=O)O)=CC[C@H]2c2cccc(Br)c2)cc1`, with 57.9%; and `CCS[C@@H]1C[C@@H](c2cccc(OC)c2)N(S(=O)(=O)c2ccc(C)cc2)C[C@H]1C(=O)O`, with 84.8%; and `Cc1ccc(S(=O)(=O)N2[C@@H](c3ccc(F)cc3)C(C(=O)O)=CC[C@H]2c2cccc(C)c2)cc1`, with 71.2%.
Then `CC(=O)C1=CC[C@@H](c2ccccc2F)N(S(=O)(=O)c2ccc(C)cc2)C1`, with 80.8%.
Then `C=CCS[C@@H]1C[C@@H](c2ccc(C)cc2)N(S(=O)(=O)c2ccccc2C)C[C@H]1C(=O)O`, with 34.5%; and `Cc1ccc(S(=O)(=O)N2[C@@H](c3cccc(Cl)c3)C(C(=O)O)=CC[C@H]2c2ccc(C#N)cc2)cc1`, with 70.9%; and `CCOc1ccc([C@@H]2C[C@@H](SCc3ccc(C(C)(C)C)cc3)[C@H](C(=O)O)CN2S(=O)(=O)c2ccc(C)cc2)cc1`, with 46%.
Consider `COc1ccc([C@@H]2C[C@@H](SCc3ccccc3)[C@H](C(=O)O)CN2S(=O)(=O)c2ccccc2)cc1`, for which the Activity came to 57.3%.
Regarding `Cc1ccc(S(=O)(=O)N2[C@@H](c3cccc(F)c3)C(C(=O)O)=CC[C@H]2c2ccc(C(C)C)cc2)cc1`, the Activity was determined as 72.8%.
Then `COc1ccc([C@@H]2CC=C(C(=O)O)[C@H](c3cccc(F)c3)N2S(=O)(=O)c2ccccc2)cc1`, with 91.8%; and `CCCCS[C@@H]1C[C@@H](c2ccc(CC)cc2)N(S(=O)(=O)c2ccc(C)cc2)C[C@H]1C(=O)O`, with 58.3%.
Then `COc1cccc([C@@H]2C[C@@H](Sc3ccccc3)[C@H](C(=O)O)CN2S(=O)(=O)c2ccc(C)cc2)c1`, with 86.1%.
Then `CS(=O)(=O)N1[C@@H](c2cccc(F)c2)C(C(=O)O)=CC[C@H]1c1ccc(Cl)cc1`, with 69.9%; and `Cc1ccc(S(=O)(=O)N2C[C@@H](C(=O)O)[C@H](Sc3ccc(Cl)cc3)C[C@H]2c2ccccc2F)cc1`, with 88.8%.
`Cc1ccc(S[C@@H]2C[C@@H](c3ccccc3)N(S(=O)(=O)c3ccc(C)cc3)C[C@H]2C(=O)O)cc1`: the Activity amounted to 98%.
Then `CCCS[C@@H]1C[C@@H](c2cccc(OC)c2)N(S(=O)(=O)c2ccc(C)cc2)C[C@H]1C(=O)O`, with 73.9%; and `COc1cc([C@@H]2C[C@@H](Sc3ccc(Cl)cc3)[C@H](C(=O)O)CN2S(=O)(=O)c2ccc(C)cc2)cc(OC)c1OC`, with 102%.
As to `Cc1ccc([C@H]2C(C(=O)O)=CC[C@@H](c3ccc(Cl)cc3)N2S(=O)(=O)c2ccc(C)cc2)cc1`, the Activity turned out to be 60.7%.
Then `CCCS[C@@H]1C[C@@H](c2ccc(OC)cc2)N(S(=O)(=O)c2ccccc2)C[C@H]1C(=O)O`, with 89.5%; and `Cc1ccc([C@H]2C(C(=O)O)=CC[C@@H](c3ccc(Cl)cc3)N2S(C)(=O)=O)cc1`, with 90.6%.
Then `COc1ccc([C@@H]2CC=C(C(=O)O)[C@H](c3cccc(C)c3)N2S(=O)(=O)c2ccc(Cl)cc2)cc1`, with 85.8%; and `COc1cc([C@@H]2C[C@@H](SCCc3ccccc3)[C@H](C(=O)O)CN2S(=O)(=O)c2ccc(C)cc2)cc(OC)c1OC`, with 43.5%.
Then `CCOc1ccc([C@@H]2CC=C(C(=O)O)[C@H](c3ccc(C(C)(C)C)cc3)N2S(=O)(=O)c2ccc(C)cc2)cc1`, with 58.7%; and `CCCS[C@@H]1C[C@@H](c2cccc(Cl)c2)N(S(=O)(=O)c2ccc(C)cc2)C[C@H]1C(=O)O`, with 78.8%.
In the case of `Cc1ccc(S(=O)(=O)N2C[C@@H](C(=O)O)[C@H](SCc3ccc(C(C)(C)C)cc3)C[C@H]2c2ccccc2F)cc1`, the Activity amounted to 71.9%.
Then `CCCS[C@@H]1C[C@@H](c2ccccc2F)N(S(=O)(=O)c2ccc(C)cc2)C[C@H]1C(=O)O`, with 91.1%; and `CCCCCCS[C@@H]1C[C@@H](c2ccc(C)cc2)N(S(=O)(=O)c2ccc(Cl)cc2)C[C@H]1C(=O)O`, with 71.6%.
On to `CCCCCCS[C@@H]1C[C@@H](c2ccc(OC)cc2)N(S(=O)(=O)c2ccc(Cl)cc2)C[C@H]1C(=O)O`, for which the Activity turned out to be 68.3%.
Then `Cc1ccc(S(=O)(=O)N2C[C@@H](C(=O)O)[C@H](SCC(C)C)C[C@H]2c2ccc3c(c2)OCO3)cc1`, with 81.7%; and `CCc1ccc([C@@H]2CC=C(C(=O)O)[C@H](c3cccc(F)c3)N2S(=O)(=O)c2ccc(C)cc2)cc1`, with 55%.
Then `CCS[C@@H]1C[C@@H](c2ccc(C)cc2)N(S(=O)(=O)c2ccc(Cl)cc2)C[C@H]1C(=O)O`, with 58.3%; and `CS(=O)(=O)N1[C@@H](c2ccc(Cl)cc2)C(C(=O)O)=CC[C@H]1c1ccccc1`, with 82.1%; and `COc1ccc(S[C@@H]2C[C@@H](c3ccc(OC)cc3)N(S(=O)(=O)c3ccccc3C)C[C@H]2C(=O)O)cc1`, with 82.2%.
Turning to `Cc1ccc([C@@H]2CC=C(C(=O)O)[C@H](c3cccc(C)c3)N2S(=O)(=O)c2ccccc2)cc1`, the Activity was 69.8%.
`Cc1ccc([C@@H]2C[C@@H](SCc3ccc(C(C)(C)C)cc3)[C@H](C(=O)O)CN2S(=O)(=O)c2ccc(C)cc2)cc1`: the Activity is 69.6%.
Then `Cc1ccc(S[C@@H]2C[C@@H](c3ccc(C)cc3)N(S(=O)(=O)c3ccccc3C)C[C@H]2C(=O)O)cc1`, with 92.4%; and `Cc1ccc([C@@H]2CC=C(C(=O)O)[C@H](c3ccc(Cl)cc3)N2S(=O)(=O)c2ccccc2C)cc1`, with 86.8%; and `Cc1ccc([C@@H]2CC=C(C(=O)O)[C@H](c3cccc(F)c3)N2S(=O)(=O)c2ccccc2C)cc1`, with 63.4%.
Turning to `COc1ccc([C@@H]2C[C@@H](SCc3ccc(C(C)(C)C)cc3)[C@H](C(=O)O)CN2S(=O)(=O)c2ccc(C)cc2)cc1`, the Activity came to 44.1%.
Then `COc1ccc([C@@H]2CC=C(C(=O)O)[C@H](c3ccc(F)cc3)N2S(=O)(=O)c2ccc(Cl)cc2)cc1`, with 67.2%; and `COc1cccc([C@@H]2C[C@@H](SCc3ccccc3)[C@H](C(=O)O)CN2S(=O)(=O)c2ccc(C)cc2)c1`, with 35%.

Source of the values: ChEMBL document CHEMBL4421722, “Inhibitors of protein prenyltransferases” (2013).
